Test results: US10219513B2, “Safening 4-amino-3-chloro-6-(4-chloro-2-fluoro-3-methoxyphenyl)-5-fluoropyridine-2-carboxylic acid compositions in Brassica species and methods of use thereof” (Dow AgroSciences LLC, priority 2016, dated 2019)

Tests used:
[1] = tested on: Brassica alboglabra (kale/Chinese kale, BRSAG); test: Greenhouse postemergence application, visual injury after 20-22 d, BRSAG; details: for % Visual Injury Obs / Obs % visual injury: BRSAG
Description: (§1) Seeds of the desired test plant species were planted in Sun Gro MetroMix® 306 planting mixture, which typically has a pH of 6.0 to 6.8 and an organic matter content of about 30 percent, in plastic pots with a surface area of 103.2 square centimeters (cm^2). […] The plants were grown for 7-36 days (d) in a greenhouse with an approximate 14-hour (h) photoperiod which was maintained at about 23° C. during the day and 22° C. during the night. Nutrients and water were added on a regular basis and supplemental lighting was provided with overhead metal halide 1000-Watt lamps as necessary. The plants were employed for testing when they reached the second or third true leaf stage.
(§2) An aliquot of formulated benzyl 4-amino-3-chloro-6-(4-chloro-2-fluoro-3-methoxyphenyl)-5-fluoropyridine-2-carboxylate (florpyrauxifen-benzyl; 300 grams active ingredient per liter (g ai/L) suspension concentrate (SC)) was placed in a 25 mL glass vial and diluted in a volume of 1.25% (v/v) aqueous Agri-dex crop oil concentrated to obtain a stock solution. […] The concentrated stock solutions were diluted with an aqueous mixture of 1.25% v/v of aqueous Agri-dex crop oil concentrate to provide the appropriate application rates. Compound requirements are based upon a 12 milliliter (mL) application volume at a rate of 187 liters per hectare (L/ha). Stock solutions of the formulated materials were prepared following the same procedure. Spray solutions of the compound mixtures were prepared by adding the stock solutions to the appropriate amount of dilution solution to form a 12 mL spray solution. Formulated compounds were applied to the plant material with an overhead Mandel track sprayer equipped with 8002E nozzles calibrated to deliver 187 L/ha over an application area of 0.503 square meters (m^2) at a spray height of 18 inches (43 centimeters (cm)) above average plant canopy. Control plants were sprayed in the same manner with the solvent blank.
(§3) The treated plants and control plants were placed in a greenhouse as described above and watered by sub-irrigation to prevent wash-off of the test compounds. After 20-22 d, the condition of the test plants as compared with that of the control plants was determined visually and scored on a scale of 0 to 100 percent where 0 corresponds to no injury and 100 corresponds to complete kill. Colby's equation was used to determine the herbicidal effects expected from the mixtures.
(§4) Benzyl 4-amino-3-chloro-6-(4-chloro-2-fluoro-3-methoxyphenyl)-5-fluoropyridine-2-carboxylate (florpyrauxifen-benzyl, 300 g ai/L SC) was combined in two-, three-, and four-way mixtures with one or more of the following: clopyralid-olamine (as Lontrel™ 35A Herbicidal Concentrate), quinclorac (as Facet 75DF), isoxadifen-ethyl (100 g/L SC), cloquintocet-mexyl (120 g/L EC) or mefenpyr-diethyl (as mefenpyr-diethyl 15WP). The mixtures were applied to kale/Chinese kale (Brassica alboglabra, BRSAG), Juncea canola or brown mustard (Brassica juncea, BRSJU), rutabaga (Brassica napus var. napobrassica, BRSNA), all varieties of canola and oilseed rape (Brassica napus, BRSNN), Nexera™ canola (Brassica napus, BRSNN-NEX), winter oilseed rape (Brassica napus, BRSNW), Roundup Ready® canola (Brassica napus, RR-BRSNN), and turnip or Polish canola (Brassica rapa, BRSRR), and the phytotoxicity of the compositions was measured.
(§5) Colby's equation was used to determine the herbicidal effects expected from the mixtures evaluated in the described trials (Colby, S. R. Calculation of the synergistic and antagonistic response of herbicide combinations. Weeds 1967, 15, 20-22.).
(§6) The following equation was used to calculate the expected activity of mixtures containing two active ingredients, A and B: Expected=A+B−(A×B/100) • A=observed efficacy of active ingredient A at the same concentration as used in the mixture; • B=observed efficacy of active ingredient B at the same concentration as used in the mixture.

[2] = tested on: Brassica napus var. napobrassica (rutabaga, BRSNA); test: Greenhouse postemergence application, visual injury after 20-22 d, BRSNA; details: for % Visual Injury Obs / Obs % visual injury: BRSNA
Description: as §1, §2, §3, §4, §5, §6

[3] = tested on: Brassica napus (Nexera canola, BRSNN-NEX); test: Greenhouse postemergence application, visual injury after 20-22 d, BRSNN-NEX; details: for % Visual Injury Obs / Obs % visual injury: BRSNN-NEX
Description: as §1, §2, §3, §4, §5, §6

[4] = tested on: Brassica napus (winter oilseed rape, BRSNW); test: Greenhouse postemergence application, visual injury after 20-22 d, BRSNW; details: for % Visual Injury Obs / Obs % visual injury: BRSNW
Description: as §1, §2, §3, §4, §5, §6

[5] = tested on: Brassica napus (Roundup Ready canola, RR-BRSNN); test: Greenhouse postemergence application, visual injury after 20-22 d, RR-BRSNN; details: for % Visual Injury Obs / Obs % visual injury: RR-BRSNN
Description: as §1, §2, §3, §4, §5, §6

[6] = postemergence application, greenhouse, application rate (g ai/ha) varies

O=C(O)c1c(Cl)ccc2cc(Cl)cnc12 [Quinclorac, 3,7-dichloro-8-quinolinecarboxylic acid]
0%: % Visual Injury Obs ([1]; 50 g ai/ha) | % Visual Injury Obs ([1]; 100 g ai/ha) | % Visual Injury Obs ([1]; 200 g ai/ha) | Obs % visual injury ([1]; partner alone 50 g ai/ha) | Obs % visual injury ([1]; partner alone 100 g ai/ha) | Obs % visual injury ([1]; partner alone 200 g ai/ha) | % Visual Injury BRSAG Obs [1, 6] | % Visual Injury BRSAG Obs ([1]; quinclorac 50 g ai/ha alone) | % Visual Injury BRSAG Obs ([1]; quinclorac 100 g ai/ha alone) | % Visual Injury BRSAG Obs ([1]; quinclorac 200 g ai/ha alone) | % Visual Injury Obs ([2]; 50 g ai/ha) | % Visual Injury Obs ([2]; 100 g ai/ha) | % Visual Injury Obs ([2]; 200 g ai/ha) | Obs % visual injury ([2]; partner alone 50 g ai/ha) | Obs % visual injury ([2]; partner alone 100 g ai/ha) | Obs % visual injury ([2]; partner alone 200 g ai/ha) | % Visual Injury BRSNA Obs [2, 6] | % Visual Injury BRSNA Obs ([2]; quinclorac 50 g ai/ha alone) | % Visual Injury BRSNA Obs ([2]; quinclorac 100 g ai/ha alone) | % Visual Injury BRSNA Obs ([2]; quinclorac 200 g ai/ha alone) | % Visual Injury Obs ([3]; 50 g ai/ha) | % Visual Injury Obs ([3]; 100 g ai/ha) | % Visual Injury Obs ([3]; 200 g ai/ha) | Obs % visual injury ([3]; partner alone 50 g ai/ha) | Obs % visual injury ([3]; partner alone 100 g ai/ha) | Obs % visual injury ([3]; partner alone 200 g ai/ha) | % Visual Injury BRSNN-NEX Obs [3, 6] | % Visual Injury BRSNN-NEX Obs ([3]; quinclorac 50 g ai/ha alone) | % Visual Injury BRSNN-NEX Obs ([3]; quinclorac 100 g ai/ha alone) | % Visual Injury BRSNN-NEX Obs ([3]; quinclorac 200 g ai/ha alone) | % Visual Injury Obs ([4]; 50 g ai/ha) | % Visual Injury Obs ([4]; 100 g ai/ha) | % Visual Injury Obs ([4]; 200 g ai/ha) | Obs % visual injury ([4]; partner alone 50 g ai/ha) | Obs % visual injury ([4]; partner alone 100 g ai/ha) | Obs % visual injury ([4]; partner alone 200 g ai/ha) | % Visual Injury BRSNW Obs [4, 6] | % Visual Injury BRSNW Obs ([4]; quinclorac 50 g ai/ha alone) | % Visual Injury BRSNW Obs ([4]; quinclorac 100 g ai/ha alone) | % Visual Injury BRSNW Obs ([4]; quinclorac 200 g ai/ha alone) | % Visual Injury Obs ([5]; 50 g ai/ha) | % Visual Injury Obs ([5]; 100 g ai/ha) | % Visual Injury Obs ([5]; 200 g ai/ha) | Obs % visual injury ([5]; partner alone 50 g ai/ha) | Obs % visual injury ([5]; partner alone 100 g ai/ha) | Obs % visual injury ([5]; partner alone 200 g ai/ha) | % Visual Injury RR-BRSNN Obs [5, 6] | % Visual Injury RR-BRSNN Obs ([5]; quinclorac 50 g ai/ha alone) | % Visual Injury RR-BRSNN Obs ([5]; quinclorac 100 g ai/ha alone) | % Visual Injury RR-BRSNN Obs ([5]; quinclorac 200 g ai/ha alone)
